System: LG0703-F948-PDC complex spheroid viability
Assay: Anticancer human tumor LG0703-F948-PDC patient-derived lung adenocarcinoma cell line growth inhibition [RAS]
Details: for IC50: curve of first compound; for viability, T/C: stronger effect = lower value
How it was run: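 Agents were tested in combination matrices in half-log decrements from a top concentration at or near clinical Cmax (10 microM if undetermined). Targets were multi-cell spheroids of tumour lines plus HUVEC and MSC stromal cells.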

[1] = second compound 0.000949 µM, first compound 0.0316 µM
[2] = second compound 0.000949 µM, first compound 0.1 µM
[3] = second compound 0.000949 µM, first compound 0.316 µM
[4] = second compound 0.000949 µM, first compound 1 µM
[5] = second compound 0.000949 µM, first compound 3.16 µM
[6] = second compound 0.000949 µM, first compound 10 µM
[7] = second compound 0.003 µM, first compound 0.0316 µM
[8] = second compound 0.003 µM, first compound 0.1 µM
[9] = second compound 0.003 µM, first compound 0.316 µM
[10] = second compound 0.003 µM, first compound 1 µM
[11] = second compound 0.003 µM, first compound 3.16 µM
[12] = second compound 0.003 µM, first compound 10 µM
[13] = second compound 0.00949 µM, first compound 0.0316 µM
[14] = second compound 0.00949 µM, first compound 0.1 µM
[15] = second compound 0.00949 µM, first compound 0.316 µM
[16] = second compound 0.00949 µM, first compound 1 µM
[17] = second compound 0.00949 µM, first compound 3.16 µM
[18] = second compound 0.00949 µM, first compound 10 µM
[19] = second compound 0.03 µM, first compound 0.0316 µM
[20] = second compound 0.03 µM, first compound 0.1 µM
[21] = second compound 0.03 µM, first compound 0.316 µM
[22] = second compound 0.03 µM, first compound 1 µM
[23] = second compound 0.03 µM, first compound 3.16 µM
[24] = second compound 0.03 µM, first compound 10 µM
[25] = second compound 0.0949 µM, first compound 0.0316 µM
[26] = second compound 0.0949 µM, first compound 0.1 µM
[27] = second compound 0.0949 µM, first compound 0.316 µM
[28] = second compound 0.0949 µM, first compound 1 µM
[29] = second compound 0.0949 µM, first compound 3.16 µM
[30] = second compound 0.0949 µM, first compound 10 µM
[31] = second compound 0.3 µM, first compound 0.0316 µM
[32] = second compound 0.3 µM, first compound 0.1 µM
[33] = second compound 0.3 µM, first compound 0.316 µM
[34] = second compound 0.3 µM, first compound 1 µM
[35] = second compound 0.3 µM, first compound 3.16 µM
[36] = second compound 0.3 µM, first compound 10 µM
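Also: spheroids exposed to agents for 7 days.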
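For viability, T/C in this document: 100% = DMSO vehicle wells.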

SMILES: CC1(O)CCCC1n1c(=O)c(C(F)F)cc2cnc(NC3CCN(S(C)(=O)=O)CC3)nc21 (centres undefined) + CCn1c(-c2cccnc2C(C)OC)c2c3cc(ccc31)N1CCOC(CC(NC(=O)C(C(C)C)N(C)C(=O)C3(F)CCN(C(=O)C#CC(C)(C)N(C)C)CC3)C(=O)N3CCCC(N3)C(=O)OCC(C)(C)C2)C1
- IC50 (second compound 0.000949 µM): > 10 µM
- IC50 (second compound 0.003 µM): 9.07 µM
- IC50 (second compound 0.00949 µM): 9.59 µM
- IC50 (second compound 0.03 µM): > 10 µM
- IC50 (second compound 0.0949 µM): 6.58 µM
- IC50 (second compound 0.3 µM): 4.12 µM
- viability, T/C [1]: 112%
- viability, T/C [2]: 89.6%
- viability, T/C [3]: 97.3%
- viability, T/C [4]: 84.6%
- viability, T/C [5]: 85.4%
- viability, T/C [6]: 50%
- viability, T/C [7]: 114%
- viability, T/C [8]: 90.7%
- viability, T/C [9]: 108%
- viability, T/C [10]: 93.5%
- viability, T/C [11]: 82.2%
- viability, T/C [12]: 46.5%
- viability, T/C [13]: 88.9%
- viability, T/C [14]: 114%
- viability, T/C [15]: 94.1%
- viability, T/C [16]: 86.4%
- viability, T/C [17]: 87.5%
- viability, T/C [18]: 47.9%
- viability, T/C [19]: 112%
- viability, T/C [20]: 90.4%
- viability, T/C [21]: 90%
- viability, T/C [22]: 84.4%
- viability, T/C [23]: 87.8%
- viability, T/C [24]: 51.4%
- viability, T/C [25]: 90.5%
- viability, T/C [26]: 99.6%
- viability, T/C [27]: 85.8%
- viability, T/C [28]: 75.5%
- viability, T/C [29]: 78.6%
- viability, T/C [30]: 36%
- viability, T/C [31]: 54.8%
- viability, T/C [32]: 56.4%
- viability, T/C [33]: 58.2%
- viability, T/C [34]: 57.4%
- viability, T/C [35]: 62.3%
- viability, T/C [36]: 23.9%

SMILES: CC1(O)CCCC1n1c(=O)c(C(F)F)cc2cnc(NC3CCN(S(C)(=O)=O)CC3)nc21 (centres undefined) + CCn1c(-c2cc(N3CCN(C)CC3)cnc2C(C)OC)c2c3cc(ccc31)-c1csc(n1)CC(NC(=O)C1CC1C)C(=O)N1CCCC(N1)C(=O)OCC(C)(C)C2
- IC50 (second compound 0.000949 µM): 4.62 µM
- IC50 (second compound 0.003 µM): < 0.0316 µM
- IC50 (second compound 0.00949 µM): < 0.0316 µM
- IC50 (second compound 0.03 µM): < 0.0316 µM
- IC50 (second compound 0.0949 µM): < 0.0316 µM
- IC50 (second compound 0.3 µM): < 0.0316 µM
- viability, T/C [1]: 77.1%
- viability, T/C [2]: 89.8%
- viability, T/C [3]: 69.7%
- viability, T/C [4]: 71.1%
- viability, T/C [5]: 63%
- viability, T/C [6]: 28.3%
- viability, T/C [7]: 52.2%
- viability, T/C [8]: 48.5%
- viability, T/C [9]: 46.9%
- viability, T/C [10]: 52.1%
- viability, T/C [11]: 46.7%
- viability, T/C [12]: 18.4%
- viability, T/C [13]: 27.4%
- viability, T/C [14]: 31%
- viability, T/C [15]: 31%
- viability, T/C [16]: 29.3%
- viability, T/C [17]: 33.4%
- viability, T/C [18]: 13.4%
- viability, T/C [19]: 16.4%
- viability, T/C [20]: 18.5%
- viability, T/C [21]: 15.9%
- viability, T/C [22]: 19.1%
- viability, T/C [23]: 19.1%
- viability, T/C [24]: 7.67%
- viability, T/C [25]: 11.3%
- viability, T/C [26]: 14%
- viability, T/C [27]: 12.9%
- viability, T/C [28]: 17%
- viability, T/C [29]: 21%
- viability, T/C [30]: 5.97%
- viability, T/C [31]: 10.2%
- viability, T/C [32]: 7.6%
- viability, T/C [33]: 15.7%
- viability, T/C [34]: 12.1%
- viability, T/C [35]: 11.2%
- viability, T/C [36]: 5.22%

Source: PubChem BioAssay AID2060890 (Molecular Pharmacology Branch, DTP, NCI, 2025)
